Data: patent US7776558B2, “Human G protein-coupled receptor and modulators thereof for the treatment of cell death-related disorders” (Arena Pharmaceuticals, Inc., priority 2003, dated 2010)
Entries after “also recorded” stand apart in the source; their conditions may differ. Where no end group is shown, it is not given here.

Molecular target: T1, FPRL2 (Homo sapiens, UniProt P25089)
T1 sequence (P25089 1-353): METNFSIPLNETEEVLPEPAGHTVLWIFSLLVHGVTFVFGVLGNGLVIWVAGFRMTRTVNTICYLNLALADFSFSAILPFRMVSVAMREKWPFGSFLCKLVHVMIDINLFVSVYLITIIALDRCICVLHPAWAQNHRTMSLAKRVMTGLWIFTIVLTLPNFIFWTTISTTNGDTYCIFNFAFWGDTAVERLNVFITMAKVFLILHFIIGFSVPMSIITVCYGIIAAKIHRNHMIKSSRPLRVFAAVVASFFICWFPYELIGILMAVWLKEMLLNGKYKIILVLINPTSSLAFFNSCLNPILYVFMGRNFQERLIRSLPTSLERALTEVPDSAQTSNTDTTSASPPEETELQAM
Experiment: Whole cell adenylate cyclase (cAMP) assay, stably transfected HEK293 cells
Format: cell-based
Parameters: expressed in transfected cells
Details: in the presence of 5 μM forskolin, FIG. 6
Description: A Flash Plate™ Adenylyl Cyclase kit (New England Nuclear; Cat. No. SMP004A) designed for cell-based assays can be modified for use with crude plasma membranes. The Flash Plate wells can contain a scintillant coating which also contains a specific antibody recognizing cAMP. The cAMP generated in the wells can be quantitated by a direct competition for binding of radioactive cAMP tracer to the cAMP antibody. The following serves as a brief protocol for the measurement of changes in cAMP levels in whole cells that express the receptors.
Transfected cells are harvested approximately twenty four hours after transient transfection. Media is carefully aspirated off and discarded. 10 ml of PBS is gently added to each dish of cells followed by careful aspiration. 1 ml of Sigma cell dissociation buffer and 3 ml of PBS are added to each plate. Cells are pipetted off the plate and the cell suspension is collected into a 50 ml conical centrifuge tube. Cells are then centrifuged at room temperature at 1,100 rpm for 5 min. The cell pellet is carefully re-suspended into an appropriate volume of PBS (about 3 ml/plate). The cells are then counted using a hemocytometer and additional PBS is added to give the appropriate number of cells (with a final volume of about 50 μl/well).
cAMP standards and Detection Buffer (comprising 1 μCi of tracer [^125I cAMP (50 μl] to 11 ml Detection Buffer) is prepared and maintained in accordance with the manufacturer's instructions. Assay Buffer is prepared fresh for screening and contains 50 μl of Stimulation Buffer, 3 ul of test compound (12 μM final assay concentration) and 50 μl cells, Assay Buffer is stored on ice until utilized. The assay is initiated by addition of 50 μl of cAMP standards to appropriate wells followed by addition of 50 ul of PBSA to wells H-11 and H12. 50 μl of Stimulation Buffer is added to all wells. DMSO (or selected candidate compounds) is added to appropriate wells using a pin tool capable of dispensing 3 μl of compound solution, with a final assay concentration of 12 μM test compound and 100 μl total assay volume. The cells are then added to the wells and incubated for 60 min at room temperature. 100 μl of Detection Mix containing tracer cAMP is then added to the wells. Plates are then incubated additional 2 hours followed by counting in a Wallac MicroBeta scintillation counter. Values of cAMP/well are then extrapolated from a standard cAMP curve which is contained within each assay plate.
In FIG. 6, agonist activity was determined through adenylate cyclase activity. […] Samples were then assessed for the level of intracellular cAMP as described in Example 4, supra.

Compound	Agonist activity at FPRL2, intracellular cAMP	Agonist activity at FPRL2, intracellular cAMP (listed as Human)
CC(C)c1ccc2c(c1)CCC1C(C)(C(N)=O)CCCC21C (stereo not shown) [Compound 1, 7-Isopropyl-1,4a-dimethyl-1,2,3,4,4a,9,10,10a-octahydro-phenanthrene-1-carboxylic acid amide]	selectively an agonist of FPRL2	–
CC[C@H](C)[C@H](NC(=O)[C@H](CCC(=O)O)NC(=O)[C@H](CO)NC(=O)[C@@H](NC(=O)[C@H](CC(C)C)NC(=O)[C@H](CC(C)C)NC(=O)[C@H](CC(C)C)NC(=O)[C@H](CC(C)C)NC(=O)[C@H](CS)NC(=O)[C@H](CO)NC(=O)[C@H](Cc1ccccc1)NC(=O)CNC(=O)[C@H](CCCNC(=N)N)NC(=O)[C@@H]1CCCN1C(=O)[C@H](C)NC(=O)[C@@H](N)CCSC)[C@@H](C)O)C(=O)N[C@@H](CC(=O)O)C(=O)N[C@@H](CC(C)C)C(=O)N1CCC[C@H]1C(=O)N[C@H](C(=O)N[C@@H](CCCCN)C(=O)N[C@@H](CCCNC(=N)N)C(=O)N[C@@H](CCCNC(=N)N)C(=O)N[C@@H](C)C(=O)O)C(C)C [Humanin]	agonists of both FPRL1 and FPRL2	agonists of both FPRL2 and FPRL1
MAPRGFSCLLLLTGEIDLPVKRRA [[Gly14]-Humanin]	agonists of both FPRL1 and FPRL2; also recorded: agonists of both FPRL2 and FPRL1	–
